Reference: patent US7488841B2, “Composition containing acyl group” (Asahi Kasei Chemicals Corporation, priority 2002, dated 2009)

Assay: Moisture absorption rate under high humidity and moisture retention under low humidity
Assay type: physicochemical
Conditions: 25° C.; for Moisture absorption rates under low humidity after different elapsed time (%): after 313 hours at high humidity
Method: The moisture absorption rate under high humidity and the moisture retention rate under low humidity were evaluated for the composition produced in Example 7 and urea as a contrast. Specifically, 1 g of dried sample was dried in a weighing bottle and weighed precisely, and left stand in a desiccator under relative humidity as high as 84% at 25° C. while measuring the sample weight with time until 313 hours has elapsed. Then, the same sample was transferred into a desiccator under relative humidity as low as 33% at 25° C., and left stand in the desiccator while measuring the sample weight with time in the same manner as above considering the point 313 hours has elapsed as a test starting point (0 hr). The moisture absorption rate was obtained in accordance with the following equation. Moisture absorption rate (%)=(Wt−W0/W0)×100 W0: dry weight before being left stand, Wt: weight at the time of each measuring

## NC(N)=O [Urea, urea]
During the course of moisture absorption, relative humidity 84%
  deliquescent properties: showed its deliquescent properties
Left stand under low humidity, relative humidity 33%
  moisture retention: released almost all its moisture
Relative humidity 33%, 0 Hr
  Moisture absorption rates under low humidity after different elapsed time (%): 72.7%
Relative humidity 33%, 25 Hr
  Moisture absorption rates under low humidity after different elapsed time (%): 1.2%
Relative humidity 33%, 49 Hr
  Moisture absorption rates under low humidity after different elapsed time (%): 0.3%
Relative humidity 33%, 75 Hr
  Moisture absorption rates under low humidity after different elapsed time (%): 0.4%
Relative humidity 33%, 141 Hr
  Moisture absorption rates under low humidity after different elapsed time (%): 0.3%
Relative humidity 84%, 5 Hr
  Moisture absorption rates under high humidity after different elapsed time (%): 0.2%
Relative humidity 84%, 27 Hr
  Moisture absorption rates under high humidity after different elapsed time (%): 3.2%
Relative humidity 84%, 48 Hr
  Moisture absorption rates under high humidity after different elapsed time (%): 7.4%
Relative humidity 84%, 120 Hr
  Moisture absorption rates under high humidity after different elapsed time (%): 24.7%
Relative humidity 84%, 197 Hr
  Moisture absorption rates under high humidity after different elapsed time (%): 42.6%
Relative humidity 84%, 313 Hr
  Moisture absorption rates under high humidity after different elapsed time (%): 72.7%
